In article PMC7983974 (Basic & Clinical Pharmacology & Toxicology, 2020):

What was measured:
[1] = molecular target: T1, UGT1A6 (Homo sapiens, UniProt P19224); experiment: M1 formation from molidustat by recombinant UGT1A6; type: in vitro ADME; conditions: 1 and 10 µmol L^−1
T1 sequence (P19224 27-532): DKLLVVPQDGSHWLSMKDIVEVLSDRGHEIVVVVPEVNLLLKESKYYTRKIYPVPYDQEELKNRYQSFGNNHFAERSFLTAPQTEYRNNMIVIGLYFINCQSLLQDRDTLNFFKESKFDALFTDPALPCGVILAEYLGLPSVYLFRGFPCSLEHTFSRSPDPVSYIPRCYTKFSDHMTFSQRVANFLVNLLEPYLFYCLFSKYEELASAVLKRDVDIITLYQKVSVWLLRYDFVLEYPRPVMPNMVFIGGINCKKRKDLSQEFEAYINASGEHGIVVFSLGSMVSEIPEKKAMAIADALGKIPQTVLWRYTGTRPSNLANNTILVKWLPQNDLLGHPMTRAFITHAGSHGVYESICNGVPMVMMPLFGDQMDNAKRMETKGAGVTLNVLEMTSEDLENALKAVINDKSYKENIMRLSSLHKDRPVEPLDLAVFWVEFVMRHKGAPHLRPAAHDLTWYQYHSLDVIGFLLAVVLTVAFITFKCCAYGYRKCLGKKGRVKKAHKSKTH

[2] = molecular target: T2, UGT2B7 (Homo sapiens, UniProt P16662); experiment: M1 formation from molidustat by recombinant UGT2B7; type: in vitro ADME; conditions: 1 and 10 µmol L^−1
T2 sequence (P16662 24-529): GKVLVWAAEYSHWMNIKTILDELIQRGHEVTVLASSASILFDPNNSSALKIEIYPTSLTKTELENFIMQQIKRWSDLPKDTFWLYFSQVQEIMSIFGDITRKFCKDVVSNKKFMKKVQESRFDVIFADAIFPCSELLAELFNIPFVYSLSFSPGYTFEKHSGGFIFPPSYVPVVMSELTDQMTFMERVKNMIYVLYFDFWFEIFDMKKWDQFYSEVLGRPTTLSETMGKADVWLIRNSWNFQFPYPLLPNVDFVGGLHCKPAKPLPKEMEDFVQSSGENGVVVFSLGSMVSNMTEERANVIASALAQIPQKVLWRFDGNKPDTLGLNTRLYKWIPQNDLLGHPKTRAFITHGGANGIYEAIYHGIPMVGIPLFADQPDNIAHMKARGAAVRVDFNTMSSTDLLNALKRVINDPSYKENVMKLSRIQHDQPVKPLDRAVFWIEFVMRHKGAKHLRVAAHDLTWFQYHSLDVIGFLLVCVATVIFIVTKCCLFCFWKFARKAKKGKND

[3] = molecular target: T3, UGT2B17 (Homo sapiens, UniProt O75795); experiment: M1 formation from molidustat by recombinant UGT2B17; type: in vitro ADME; conditions: 1 and 10 µmol L^−1
T3 sequence (O75795 24-530): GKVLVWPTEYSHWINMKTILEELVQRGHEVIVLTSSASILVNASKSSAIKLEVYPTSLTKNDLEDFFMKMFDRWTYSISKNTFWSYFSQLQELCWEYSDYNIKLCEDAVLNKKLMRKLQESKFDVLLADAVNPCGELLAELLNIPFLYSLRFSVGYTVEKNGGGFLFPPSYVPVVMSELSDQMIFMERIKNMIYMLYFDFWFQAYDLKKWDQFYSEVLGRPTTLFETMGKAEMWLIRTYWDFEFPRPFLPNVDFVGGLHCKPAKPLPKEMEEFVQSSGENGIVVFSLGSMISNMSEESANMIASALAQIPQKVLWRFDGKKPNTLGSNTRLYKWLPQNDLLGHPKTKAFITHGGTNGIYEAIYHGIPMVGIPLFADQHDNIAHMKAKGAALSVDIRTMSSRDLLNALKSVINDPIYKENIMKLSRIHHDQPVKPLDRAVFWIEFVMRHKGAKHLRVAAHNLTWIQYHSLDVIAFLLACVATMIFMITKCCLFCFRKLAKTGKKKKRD

[4] = tested on: HIF‐PH (EC 1.14.11.29); conditions: cited from earlier work

O=c1c(-n2ccnn2)c[nH]n1-c1cc(N2CCOCC2)ncn1 [Molidustat]
activity for glucuronidation of molidustat [1]: lacked measurable activity | activity for glucuronidation of molidustat [2]: lacked measurable activity | activity for glucuronidation of molidustat [3]: lacked measurable activity | inhibition of HIF‐PH [4]: nanomolar concentration range
